Where a name gives a salt, the structure may show the parent alone.
Test system: PGE2
Test: Inhibition of PGE2 formation in rabbit articular chondrocytes stimulated with IL-1β (RIA)
Format: cell-based
Settings: Oryctolagus cuniculus, Chondrocyte; rabbit articular chondrocytes, IL-1β 1 ng/ml, 48 hours, RIA; read-out: Inhibition % IC50 PGE2
Protocol: a) The inhibitory activity on the formation of NO measured as NO2^− (nitrite) and PGE2 was studied in vitro on culture media of rabbit articular chondrocytes stimulated with the cytokine IL-1β (1 ng/ml) for 48 hours. For the preparation of the chondrocytes, the method described by Berenbaum et al. [FEBS Letters 340, 51-55 (1994)] was followed. Briefly, fragments of cartilage removed aseptically from the articular heads of rabbit shoulder, hip and knee were finely ground and digested at 37° C. in hyaluronidase, trypsin and collagenase solutions, giving, after filtration through sterile gauze and centrifugation at 600×g and suitable dilution with 10% DMEM-FCS 10%, a concentration per well of about 1×10^5 cells. The cells were maintained under these conditions until confluent (about 15 days), the medium being replaced every 3 days. At this point, the test products dissolved in the medium were added to each sample and, after 20 minutes, 350 μl of IL-1β were added, to give a final concentration of 1 ng/ml. The stimulation lasted 48 hours at 37° C. (incubation in air/7% CO2). A nitrite assay was subsequently performed on the cell supernatant, as described by Green et al. [Anal. Biochem. 126, 131-138 (1982)], and of PGE2 by RIA assay. The results obtained are shown in Table 3, in which is given, for a number of the compounds that are the subject of the invention and that are already illustrated in Table 1, the IC50, i.e. the concentration (micromolar) of antagonist capable of inhibiting the formation of nitrites and PGE2 by 50% relative to the control group, i.e. relative to the cells stimulated with IL-1β but without addition of antagonists.

SMILES | IC50
COc1ccc(S(N)(=O)=O)cc1-c1nc2cc(NC(C)=N)ccc2s1 [Compound 13, N-[2-(5-aminosulfonyl-2-methoxyphenyl)benzothiazol-5-yl]acetamidine hydrochloride] | 16.2 µM
CC(=N)Nc1ccc2sc(-c3ccccn3)nc2c1 [Compound 14, N-[2-(2-pyridyl)benzothiazol-5-yl]acetamidine] | 42.5 µM

Same assay, conditions: rabbit articular chondrocytes, IL-1β 1 ng/ml, 48 hours, RIA

SMILES | Inhibition % IC50 PGE2
CC(=N)Nc1ccc2[nH]c(-c3cccc(C(F)(F)F)c3)nc2c1 [Compound 36, N-[2-(3-trifluoromethylphenyl)benzimidazole-5-yl]acetamidine hydrobromide] | IN (IN = <25% inhibitory activity at 30 × 10^−6M)
CC(=N)Nc1ccc2[nH]c(-c3ccccc3F)nc2c1 [Compound 38, N-[2-(2-fluorophenyl)benzimidazol-5-yl]acetamidine hydrobromide] | IN (IN = <25% inhibitory activity at 30 × 10^−6M)

Test system: not given
Test: not given
Settings: not given

SMILES | melting point
CC(=N)Nc1ccc2[nH]c(-c3cccc(C(F)(F)F)c3)nc2c1 (as salt: hydrobromid) [Compound 36, N-[2-(3-trifluoromethylphenyl)benzimidazole-5-yl]acetamidine hydrobromide] | 284.3 to 285.4 °C
CC(=N)Nc1ccc2[nH]c(-c3ccccc3F)nc2c1 (as salt: hydrobromid) [Compound 38, N-[2-(2-fluorophenyl)benzimidazol-5-yl]acetamidine hydrobromide] | 266.8 to 269 °C
COc1ccc(S(N)(=O)=O)cc1-c1nc2cc(NC(C)=N)ccc2s1 (as salt: hydrochloride) [Compound 13, N-[2-(5-aminosulfonyl-2-methoxyphenyl)benzothiazol-5-yl]acetamidine hydrochloride] | 244 to 248 °C
CC(=N)Nc1ccc2[nH]c(-c3ccc(F)cc3)nc2c1 (as salt: hydrochloride) [Compound 19, N-[2-(4-fluorophenyl)benzimidazol-5-yl]acetamidine dihydrochloride] | 283.7 to 286.3 °C
CC(=N)Nc1ccc2[nH]c(-c3ccccc3)nc2c1 (as salt: hydrochloride) [Compound 21, N-(2-phenyl-3H-benzimidazol-5-yl)acetamidine hydrochloride] | 164 to 166 °C
CCCCCc1nc2ccc(NC(C)=N)cc2[nH]1 (as salt: hydrochloride) [Compound 22, N-(2-pentyl-3H-benzimidazol-5-yl)acetamidine dihydrochloride] | 276.9 to 278.3 °C
CC(=N)Nc1ccc2[nH]c(-c3ccc[nH]3)nc2c1 (as salt: hydrochloride) [Compound 23, N-[2-(pyrrol-2-yl)-3H-benzimidazol-5-yl]acetamidine dihydrochloride] | 318 to 322 °C
COC(=O)c1ccc(-c2nc3cc(NC(C)=N)ccc3[nH]2)cc1 (as salt: hydrochloride) [Compound 25, Methyl 4-(5-acetimidoylamino-1H-benzimidazol-2-yl)benzoate hydrochloride] | 284 to 288 °C
CC(=N)Nc1ccc2nc(-c3ccccc3)ncc2c1 (as salt: hydrochloride) [Compound 27, N-(2-phenylquinazolin-6-yl)acetamidine dihydrochloride] | 162 to 168 °C
COc1ccccc1-c1nc2cc(NC(C)=N)ccc2n1C (as salt: hydrochloride) [Compound 43, N-[1-methyl-2-(2-methoxyphenyl)benzimidazol-5-yl]acetamidine dihydrochloride] | 253.1 to 254.7 °C
CC(=N)Nc1ccc2sc(-c3ccccn3)nc2c1 [Compound 14, N-[2-(2-pyridyl)benzothiazol-5-yl]acetamidine] | 187.2 to 188.9 °C
Br.CC(=N)Nc1ccc2nc(-c3ccc[nH]3)[nH]c2c1 [Compound 24, N-[2-(pyrrol-2-yl)-3H-benzimidazol-5-yl]acetamidine hydrobromide] | 197 to 199 °C
COc1ccccc1-c1[nH]c2ccc(NC(C)=N)cc2[n+]1C [Compound 44, N-[1-methyl-2-(2-methoxyphenyl)benzimidazol-6-yl]acetamidine] | 205.6 to 207.1 °C

From patent US20050197331A1, “Novel anti-inflammatory and analgesic heterocyclic amidines that inhibit nitrogen oxide (NO) production” (ROTTAPHARM SPA, priority 2004, published 2005)
